One experiment has as its target T1, human wt p53 (Homo sapiens, UniProt P04637).
T1 construct: expressed in transfected cells
Nature of the experiment: yeast-based assay, yeast cells expressing human wt p53 (growth by CFU counts, cell cycle, actin Western blot). The method, then:
FIG. 1 illustrates that SLMP53-1 and SLMP53-2 increase the p53 effects in yeast. Yeast cells expressing human wt p53 and transformed with the empty vector (control yeast) were incubated in selective induction medium in the presence of 0.1-25 μM compound or DMSO only, for 42 hours. (A) Effect of 10 μM SLMP53-1 and SLMP53-2 on the p53-induced yeast growth inhibition. Results are plotted setting as one unit the p53-induced growth inhibition in the presence of DMSO only. Growth was estimated by colony-forming unit (CFU) counts. […] (B) Dose-response curve for SLMP53-1 in yeast cells expressing human p53 and control yeast. Cells were incubated in selective medium with 0.1-25 μM of SLMP53-1 or DMSO only. Results are plotted setting as 100% growth inhibition the number of CFU obtained in the presence of DMSO only. Data are mean±S.E.M. of three independent experiments (*P<0.05; unpaired Student's t-test). (C) Effect of SLMP53-1 and SLMP53-2 on p53-induced S-phase cell cycle arrest in yeast. Cell cycle phases were analyzed by flow cytometry using Sytox Green and quantified using ModFit LT software; quantification of cell cycle phases represent the mean values. (D) Increase of p53-induced actin protein expression levels by SLMP53-1 and SLMP53-2 in yeast expressing p53. Western Blot band intensity was quantified using Pgk1p as loading control (with Bio-Profile Bio-1D++ software).
Using a yeast-based screening approach, the chiral compounds SLMP53-1 and SLMP53-2 were identified as potential activators of wt p53, from a chemical library of tryptophanol-derived oxazoloisoindolinones with general formula (I) shown in FIG. 1, wherein X, R^1, R^2, R^3, R^4, R^5, R^6, R^7, R^8, R^9 and R^10 are as defined herein, as well as their stereoisomers, enantiomers, ra.cemates, tautomers thereof or mixtures thereof; or a pharmaceutically acceptable salt, solvate or prodrug thereof. In the yeast cell model, compounds SLMP53-1 and SLMP53-2 increased the previously reported (Coutinho et al. FEBS Lett. 2009, 583, 3582-3588) p53-induced growth inhibition (FIGS. 1A and B) and S-phase cell cycle arrest (FIG. 1C).
(In western blotting, separated proteins are transferred to a membrane and probed.)

The test system of experiment [1] is HCT116 p53^−/−. In words: SRB growth inhibition assay in HCT116 p53^−/− colon carcinoma cells. It counts as cell-based, human. The conditions noted are these: Homo sapiens, HCT-116, 48 hours incubation, mean±S.E.M. On the procedure:
Tumor cells were plated at 5.0×10^3 cells/well in 96-well plates and incubated for 24 hours. Cells were then exposed to serial dilutions of SLMP53-1, CP-31398 or PRIMA-1 (from 1.85 to 150 μM). The effect of the compounds was analyzed following 48 hours incubation, using the sulforhodamine B (SRB) assay. The solvent DMSO corresponding to the maximum concentration used in these assays (0.025%) was included as control. The GI50 value, the concentration of compound that causes 50% growth inhibition, was calculated for the tested compounds. Results are the mean±S.E.M. of three independent experiments.

Another experiment concerns HCT116 p53^+/+. Nature of the experiment: Western blot of p53 and p53-target proteins, PARP cleavage, HCT116 p53^+/+. It counts as cell-based, human. The method, then:
(§1) FIG. 2 illustrates that SLMP53-1 increases the levels of proteins encoded by p53 target genes (MDM2, p21, PUMA and BAX), and leads to PARP cleavage in colon carcinoma cells with wt p53 (HCT116 p53^+/+), but not in colon carcinoma cells without wt p53 (HCT116 p53^−/−). Western blot analysis was performed for human colon carcinoma cells after 16 (B, D, E) and 24 (A, C, F) hours treatment with 15.5 μM of SLMP53-1, 135 nM doxorubicin (DOXO; positive control) or DMSO only. The protein expression levels were evaluated by quantification of Western Blot band intensity (with Bio-Profile Bio-1D++ software) using GAPDH as loading control.

Experiment [2] concerns HCT116 p53^−/−. In words: Western blot of p53-target proteins, PARP cleavage, HCT116 p53^−/−. The conditions noted are these: 15.5 μM. It counts as cell-based, human. On the procedure:
as §1

In the next experiment the target is T2, mutant p53 R273H (Homo sapiens, UniProt P04637, R273H).
T2 construct: expressed in transfected cells
In words: reactivation of mutant p53 in yeast (growth, CFU), R273H. Type of experiment: cell-based. The conditions noted are these: 10 μM; yeast expressing R273H; 44 hours. On the procedure: (§2) FIG. 6 illustrates that SLMP53-1 reactivates mutant p53s R273H, R175H and R280K in yeast. Yeast cells expressing R273H, R280K, Y220C or R175H were incubated in selective medium with 10 μM of SLMP53-1, 10 μM of CP-31398 (for R273H), 10 μM of PRIMA-1 (for R175H and R280K), 50 μM of PhiKan 083 (for Y220C) or DMSO only, for 44 hours. CP-31398, PRIMA-1 and PhiKan 083 were used as positive controls. Results are plotted setting as 100% growth the number of CFU obtained in the presence of DMSO only.
(§3) It is also shown that SLMP53-1 can reactivate some mutant p53 forms, particularly R273H, R280K and R175H (FIG. 6).

The target in another experiment is T3, mutant p53 R280K (Homo sapiens, UniProt P04637, R280K).
T3 construct: expressed in transfected cells
Nature of the experiment: reactivation of mutant p53 in yeast (growth, CFU), R280K. It counts as cell-based. Conditions: 10 μM; yeast expressing R280K; 44 hours. On the procedure: as §2, §3

The subject of a further experiment is HCT116 p53^−/− tumors. Nature of the experiment: xenograft mouse model, HCT116 p53^−/− tumors. It counts as in vivo, BALB/c mice. Conditions: four intraperitoneal injections of 50 mg/kg, preliminary. On the procedure:
FIG. 10 illustrates the antitumor activity of SLMP53-1 in vivo. BALB/c mice, 4-6 weeks old, were implanted subcutaneous xenografts using 1.5×10^6 HCT116 p53^+/+ or HCT116 p53^−/− cells. The treatment was initiated when palpable tumors were established (14 days after the cells were injected), and consisted in 4 intraperitoneal injections (2× per week) of vehicle (control) or 50 mg/kg of SLMP53-1. Xenografts were measured during 24 days. Relative tumor volumes were plotted for control and treated groups by dividing the average tumor volume for each data point by average starting tumor volume.
Currently, the toxicity and antitumor activity of SLMP53-1 are under study in vivo using xenograft mouse models. […] Because p53-null tumors were not suppressed, it was confirmed that SLMP53-1 inhibited the tumor growth in a wt p53-dependent manner.

As usually defined, the GI50 is the concentration giving 50% growth inhibition. High values mean lower sensitivity of the cells, low ones greater sensitivity of the cells.

As to `C[C@]12OC[C@H](Cc3c[nH]c4ccccc34)N1C(=O)c1ccccc12` [SLMP53-1], the p53-induced growth inhibition result on human wt p53 (yeast expressing human wt p53, 10 μM, 42 hours, vs DMSO only) was “increased”. At human wt p53 (yeast expressing human wt p53, flow cytometry), the “p53-induced S-phase cell cycle arrest” value is “increased”. In addition, the actin protein levels entry at human wt p53 (yeast expressing p53, Western blot, vs DMSO only) is “increased the actin protein levels”. In the experiment with HCT116 p53^−/− [1], this compound gave a GI50 of 34 ± 3.5 µM. Besides, the “protein levels of p53 and of MDM2, p21, PUMA and BAX” value with HCT116 p53^+/+ (15.5 μM (GI50), 16 and 24 hours) is on record as “increased”. The PARP cleavage result is listed as “led to PARP cleavage” with HCT116 p53^+/+ (24 hours) and “did not induce PARP cleavage” with HCT116 p53^−/− [2]. Further, the “expression levels of MDM2, p21, PUMA and Bax” value in the experiment on HCT116 p53^−/− [2] was “did not interfere”. Further, the yeast growth inhibition result at mutant p53 R273H and at mutant p53 R280K was “significant growth inhibition” in each case. The tumor growth entry in the experiment on HCT116 p53^−/− tumors was “without apparent effects”.
